Data taken from US20190022152A1, “MICROBIOME RESPONSE TO AGENTS” (Yeda Research and Development Co., Ltd., priority 2014, published 2019).

Key:
[1] = test system: fecal matter from naïve mice; assay: In vitro anaerobic culturing of fecal matter with saccharin; format: cell-based; details: anaerobic culture with saccharin 5 mgml^−1, day 9
Method: pooled fecal matter from naïve adult WT C57Bl/6 male mice was resuspended in 5 ml PBS in an anaerobic chamber (Coy Laboratory Products, 75% N2, 20% CO2, 5% H2), vortexed for 3 minutes and allowed to settle by gravity for 2 minutes. […] were added to a tube containing Chopped Meat Carbohydrate Broth, PR II (BD) and […] of a 5 mgml-1 saccharin solution or an equal volume of PBS. Every 3 days, 500 ml of culture were diluted to fresh medium containing saccharin or PBS. After 9 days, cultures were used for inoculation of germ-free mice.
Frozen fecal samples were processed for DNA isolation using the MoBio PowerSoil kit according to the manufacturer's instructions. […] the variable region 2 (V2) of the 16S rRNA gene were generated by using the following barcoded primers: Fwd 5′-[…]-3′ (SEQ ID NO: 3), Rev 5′-[…]-3′ (SEQ ID NO: 4). […] Reads were then processed using the QIIME (Quantitative Insights Into Microbial Ecology) analysis pipeline as described, version 1.8. Paired-end joined sequences were grouped into operational taxonomic units (OTUs) using the UCLUST algorithm and the greengenes database. Sequences with distance-based similarity of 97% or greater over median sequence length of 353 bp were assigned to the same OTU. Samples were grouped according to the treatment. […] P-values were FDR corrected for multiple hypothesis testing.

[2] = test system: fecal microbiota KEGG pathways; assay: Shotgun metagenomic sequencing: KEGG pathway abundance (Table 2); format: in vivo, mice
Method: Illumina sequence reads were mapped to the human microbiome reference genome database of the Human Microbiome Project [www(dot)hmpdacc(dot)org/HMREFG/^32], and to a gut microbial gene catalogue^33 using GEM mapper^58 with the following parameters: • -m 3 -s 0 -q offset-33 -gem-quality-threshold 26
Microbial species abundance was measured as the fraction of reads that mapped to a single species in the database. An EM algorithm adapted from Pathoscope^59 was employed to determine the correct assignment of reads that mapped to more than one species. We considered only species for which at least 10% of the genome was covered (each coverage bin was 10,000-bp long) in at least one of the growth conditions (saccharin, water, or glucose). Reads mapped to the gut microbial gene catalogue were assigned a KEGG^34,35 ID according to the mapping available with the catalogue. Genes were subsequently mapped to KEGG pathways, and only pathways whose gene coverage was above 0.2 were included.

Structure (SMILES): O=C1NS(=O)(=O)c2ccccc21 [saccharin]
- Firmicutes relative abundance in stool culture ([1]; control 22%): 6%
- Bacteroidetes phyla relative abundance in stool culture ([1]; control 70%): 89%
- glycan degradation pathways abundance ([2]; GF mice transplanted with microbiomes cultured in vitro with 5 mgml^−1 saccharin vs PBS): highly enriched
- Log_fold change: 2-Oxocarboxylic acid metabolism ([2]; In vivo (week 11/week 0)): 0.10
- Log_fold change: ABC transporters ([2]; In vivo (week 11/week 0)): 0.02
- Log_fold change: Alanine, aspartate and glutamate metabolism ([2]; In vivo (week 11/week 0)): 0.02
- Log_fold change: Amino sugar and nucleotide sugar metabolism ([2]; In vivo (week 11/week 0)): 0.09
- Log_fold change: Aminoacyl-tRNA biosynthesis ([2]; In vivo (week 11/week 0)): −0.13
- Log_fold change: Aminobenzoate degradation ([2]; In vivo (week 11/week 0)): 0.04
- Log_fold change: Arginine and proline metabolism ([2]; In vivo (week 11/week 0)): 0.05
- Log_fold change: Ascorbate and aldarate metabolism ([2]; In vivo (week 11/week 0)): 0.27
- Log_fold change: Atrazine degradation ([2]; In vivo (week 11/week 0)): 0.12
- Log_fold change: Bacterial chemotaxis ([2]; In vivo (week 11/week 0)): 0.30
- Log_fold change: Bacterial secretion system ([2]; In vivo (week 11/week 0)): −0.10
- Log_fold change: Base excision repair ([2]; In vivo (week 11/week 0)): 0.03
- Log_fold change: Benzoate degradation ([2]; In vivo (week 11/week 0)): 0.00
- Log_fold change: Biosynthesis of amino acids ([2]; In vivo (week 11/week 0)): 0.03
- Log_fold change: Biosynthesis of siderophore group nonribosomal peptides ([2]; In vivo (week 11/week 0)): 0.16
- Log_fold change: Biosynthesis of unsaturated fatty acids ([2]; In vivo (week 11/week 0)): −0.07
- Log_fold change: Biotin metabolism ([2]; In vivo (week 11/week 0)): 0.13
- Log_fold change: Bisphenol degradation ([2]; In vivo (week 11/week 0)): 0.04
- Log_fold change: Butanoate metabolism ([2]; In vivo (week 11/week 0)): 0.00
- Log_fold change: CS-Branched dibasic acid metabolism ([2]; In vivo (week 11/week 0)): 0.11
- Log_fold change: Caprolactam degradation ([2]; In vivo (week 11/week 0)): 0.29
- Log_fold change: Carbon fixation in photosynthetic organisms ([2]; In vivo (week 11/week 0)): −0.13
- Log_fold change: Carbon fixation pathways in prokaryotes ([2]; In vivo (week 11/week 0)): 0.01
- Log_fold change: Carbon metabolism ([2]; In vivo (week 11/week 0)): 0.00
- Log_fold change: Cell cycle-Caulobacter ([2]; In vivo (week 11/week 0)): −0.06
- Log_fold change: Chloroalkane and chloroalkene degradation ([2]; In vivo (week 11/week 0)): −0.07
- Log_fold change: Citrate cycle (TCA cycle) ([2]; In vivo (week 11/week 0)): 0.03
- Log_fold change: Cyanoamino acid metabolism ([2]; In vivo (week 11/week 0)): 0.18
- Log_fold change: Cysteine and methionine metabolism ([2]; In vivo (week 11/week 0)): −0.02
- Log_fold change: D-Alanine metabolism ([2]; In vivo (week 11/week 0)): −0.10
- Log_fold change: D-Arginine and D-ornithine metabolism ([2]; In vivo (week 11/week 0)): −0.08
- Log_fold change: D-Glutamine and D-glutamate metabolism ([2]; In vivo (week 11/week 0)): −0.04
- Log_fold change: DDT degradation ([2]; In vivo (week 11/week 0)): −0.61
- Log_fold change: DNA replication ([2]; In vivo (week 11/week 0)): −0.06
- Log_fold change: Dioxin degradation ([2]; In vivo (week 11/week 0)): −0.34
- Log_fold change: Drug metabolism-other enzymes ([2]; In vivo (week 11/week 0)): 0.05
- Log_fold change: Ether lipid metabolism ([2]; In vivo (week 11/week 0)): 0.05
- Log_fold change: Fatty acid biosynthesis ([2]; In vivo (week 11/week 0)): 0.05
- Log_fold change: Fatty acid degradation ([2]; In vivo (week 11/week 0)): −0.03
- Log_fold change: Fatty acid metabolism ([2]; In vivo (week 11/week 0)): 0.06
- Log_fold change: Flagellar assembly ([2]; In vivo (week 11/week 0)): −0.18
- Log_fold change: Folate biosynthesis ([2]; In vivo (week 11/week 0)): 0.13
- Log_fold change: Fructose and mannose metabolism ([2]; In vivo (week 11/week 0)): 0.18
- Log_fold change: Galactose metabolism ([2]; In vivo (week 11/week 0)): 0.24
- Log_fold change: Geraniol degradation ([2]; In vivo (week 11/week 0)): 0.04
- Log_fold change: Glutathione metabolism ([2]; In vivo (week 11/week 0)): 0.12
- Log_fold change: Glycerolipid metabolism ([2]; In vivo (week 11/week 0)): 0.11
- Log_fold change: Glycerophospholipid metabolism ([2]; In vivo (week 11/week 0)): 0.06
- Log_fold change: Glycine, serine and threonine metabolism ([2]; In vivo (week 11/week 0)): 0.13
- Log_fold change: Glycolysis/Gluconeogenesis ([2]; In vivo (week 11/week 0)): −0.09
- Log_fold change: Glycosaminoglycan degradation ([2]; In vivo (week 11/week 0)): 0.34
- Log_fold change: Glycosphingolipid biosynthesis-globoseries ([2]; In vivo (week 11/week 0)): 0.33
- Log_fold change: Glyoxylate and dicarboxylate metabolism ([2]; In vivo (week 11/week 0)): 0.13
- Log_fold change: Histidine metabolism ([2]; In vivo (week 11/week 0)): 0.13
- Log_fold change: Homologous recombination ([2]; In vivo (week 11/week 0)): −0.09
- Log_fold change: Inositol phosphate metabolism ([2]; In vivo (week 11/week 0)): −0.01
- Log_fold change: Limonene and pinene degradation ([2]; In vivo (week 11/week 0)): 0.04
- Log_fold change: Lipoicacid metabolism ([2]; In vivo (week 11/week 0)): 0.36
- Log_fold change: Lipopolysaccharide biosynthesis ([2]; In vivo (week 11/week 0)): 0.21
- Log_fold change: Lysine biosynthesis ([2]; In vivo (week 11/week 0)): −0.07
- Log_fold change: Lysine degradation ([2]; In vivo (week 11/week 0)): 0.14
- Log_fold change: Methane metabolism ([2]; In vivo (week 11/week 0)): 0.02
- Log_fold change: Mismatch repair ([2]; In vivo (week 11/week 0)): −0.03
- Log_fold change: Naphthalene degradation ([2]; In vivo (week 11/week 0)): 0.04
- Log_fold change: Nicotinate and nicotinamide metabolism ([2]; In vivo (week 11/week 0)): −0.05
- Log_fold change: Nitrogen metabolism ([2]; In vivo (week 11/week 0)): 0.00
- Log_fold change: Nitrotoluene degradation ([2]; In vivo (week 11/week 0)): −0.22
- Log_fold change: Novobiocin biosynthesis ([2]; In vivo (week 11/week 0)): 0.29
- Log_fold change: Nucleotide excision repair ([2]; In vivo (week 11/week 0)): −0.08
- Log_fold change: One carbon pool by folate ([2]; In vivo (week 11/week 0)): 0.07
- Log_fold change: Other glycan degradation ([2]; In vivo (week 11/week 0)): 0.36
- Log_fold change: Oxidative phosphorylation ([2]; In vivo (week 11/week 0)): −0.03
- Log_fold change: Pantothenate and CoA biosynthesis ([2]; In vivo (week 11/week 0)): 0.04
- Log_fold change: Penicillin and cephalosporin biosynthesis ([2]; In vivo (week 11/week 0)): 0.00
- Log_fold change: Pentose and glucuronate interconversions ([2]; In vivo (week 11/week 0)): 0.31
- Log_fold change: Pentose phosphate pathway ([2]; In vivo (week 11/week 0)): 0.03
- Log_fold change: Peptidoglycan biosynthesis ([2]; In vivo (week 11/week 0)): 0.01
- Log_fold change: Phenylalanine metabolism ([2]; In vivo (week 11/week 0)): 0.30
- Log_fold change: Phenylalanine, tyrosine and tryptophan biosynthesis ([2]; In vivo (week 11/week 0)): 0.24
- Log_fold change: Phosphonate and phosphinate metabolism ([2]; In vivo (week 11/week 0)): 0.30
- Log_fold change: Phosphotransferase system (PTS) ([2]; In vivo (week 11/week 0)): −0.43
- Log_fold change: Porphyrin and chlorophyll metabolism ([2]; In vivo (week 11/week 0)): 0.23
- Log_fold change: Propanoate metabolism ([2]; In vivo (week 11/week 0)): 0.02
- Log_fold change: Protein export ([2]; In vivo (week 11/week 0)): −0.04
- Log_fold change: Proximal tubule bicarbonate reclamation ([2]; In vivo (week 11/week 0)): −0.01
- Log_fold change: Purine metabolism ([2]; In vivo (week 11/week 0)): −0.08
- Log_fold change: Pyrimidine metabolism ([2]; In vivo (week 11/week 0)): −0.08
- Log_fold change: Pyruvate metabolism ([2]; In vivo (week 11/week 0)): 0.01
- Log_fold change: RNA degradation ([2]; In vivo (week 11/week 0)): −0.05
- Log_fold change: Riboflavin metabolism ([2]; In vivo (week 11/week 0)): −0.02
- Log_fold change: Ribosome ([2]; In vivo (week 11/week 0)): −0.24
- Log_fold change: Selenocompound metabolism ([2]; In vivo (week 11/week 0)): 0.03
- Log_fold change: Sphingolipid metabolism ([2]; In vivo (week 11/week 0)): 0.34
- Log_fold change: Starch and sucrose metabolism ([2]; In vivo (week 11/week 0)): 0.19
- Log_fold change: Streptomycin biosynthesis ([2]; In vivo (week 11/week 0)): 0.10
- Log_fold change: Styrene degradation ([2]; In vivo (week 11/week 0)): −0.06
- Log_fold change: Sulfur metabolism ([2]; In vivo (week 11/week 0)): 0.19
- Log_fold change: Sulfur relay system ([2]; In vivo (week 11/week 0)): −0.03
- Log_fold change: Synthesis and degradation of ketone bodies ([2]; In vivo (week 11/week 0)): −0.35
- Log_fold change: Taurine and hypotaurine metabolism ([2]; In vivo (week 11/week 0)): 0.14
- Log_fold change: Terpenoid backbone biosynthesis ([2]; In vivo (week 11/week 0)): 0.04
- Log_fold change: Tetracycline biosynthesis ([2]; In vivo (week 11/week 0)): −0.50
- Log_fold change: Thiamine metabolism ([2]; In vivo (week 11/week 0)): −0.03
- Log_fold change: Tropane, piperidine and pyridine alkaloid biosynthesis ([2]; In vivo (week 11/week 0)): 0.27
- Log_fold change: Tryptophan metabolism ([2]; In vivo (week 11/week 0)): 0.01
- Log_fold change: Two−component system ([2]; In vivo (week 11/week 0)): 0.06
- Log_fold change: Tyrosine metabolism ([2]; In vivo (week 11/week 0)): 0.02
- Log_fold change: Ubiquinone and other terpenoid-quinone biosynthesis ([2]; In vivo (week 11/week 0)): 0.03
- Log_fold change: Valine, leucine and isoleucine biosynthesis ([2]; In vivo (week 11/week 0)): 0.10
- Log_fold change: Valine, leucine and isoleucine degradation ([2]; In vivo (week 11/week 0)): 0.06
- Log_fold change: Vibriocholerae pathogenic cycle ([2]; In vivo (week 11/week 0)): −0.01
- Log_fold change: Vitamin B6 metabolism ([2]; In vivo (week 11/week 0)): 0.16
- Log_fold change: Xylene degradation ([2]; In vivo (week 11/week 0)): −0.51
- Log_fold change: beta-Alanine metabolism ([2]; In vivo (week 11/week 0)): 0.14
- Log_fold change: beta-Lactam resistance ([2]; In vivo (week 11/week 0)): 0.11
- KEGG pathways incl. ascorbate and aldarate metabolism, lipopolysaccharide biosynthesis, bacterial chemotaxis ([2]; mice consuming HFD and pure saccharin vs water): multiple enriched pathways
- starch and sucrose, fructose and mannose metabolism, folate-, glycerolipid- and fatty acid biosynthesis pathways ([2]; microbiomes of saccharin consuming mice): enriched
- glucose transport pathways ([2]; saccharin-consuming mice): underrepresented
- glycan degradation pathways abundance ([2]; saccharin-consuming mice, week 11 vs week 0): strong increase
